Data set [1] in a line: Warming of emulsion at 37° C. for 2 h before infusion. The class given is physicochemical. As to conditions: syringe and extension tubing. The method, then:
(§1) The experimental design for the experiments is illustrated in FIG. 1. Rabbits were randomly assigned to one of six experimental groups: a control group (0.9% saline infusion), a vehicle group (drug lipid vehicle), or one of four anesthetic groups (emulsified desflurane, isoflurane, enflurane, or sevoflurane). The vials of anesthetics were stored at 4° C. as prepared in Example 1. After opening, the vial was left in a water bath at 37° C. for 2 h. Anesthetics were directly poured into the syringe without using negative pressure suction.
All anesthetics were used under equivalent experimental conditions, as indicated previously (i.e., warmed for two hours at body temperature before infusion).
Despite efforts to remove the bubbles, it was impossible to eliminate all bubbles, and some were likely infused during the infusion period. Desflurane results should therefore be interpreted with the constraints of this experimental limitation.

Data set [2] has as its system myocardial ischemia-reperfusion injury. Description: Myocardial infarct size following ischemia and reperfusion (30 min LAD occlusion, 3 h reperfusion). The class given is in vivo, rabbit. As to conditions: for infarct size plotted as a function of area at risk, versus control regression line: FIGS. 4A, 4B, 5A, 5B; for cardioprotection (protection against myocardial ischemia-reperfusion injury): i.v. emulsion prior to coronary artery occlusion; for IF/AAR: infarct size as percentage of area at risk, i.v. emulsion 10 ml/h 30 min, stopped 30 min before occlusion; for IF WT: infarct weight. The method, then:
These experiments were designed to characterize the effects of different HVAs (enflurane, isoflurane, sevoflurane, and desflurane) administered intravenously in an emulsion on myocardial infarct size following ischemia and reperfusion in rabbits.
Male New Zealand white rabbits weighing between 2.5 and 3.0 kg were anesthetized with intravenous sodium pentobarbital (30 mg/kg). Additional doses of pentobarbital were titrated as required to assure that pedal and palpebral reflexes were absent throughout the experiment. A tracheotomy was performed through a ventral midline incision, and the trachea was cannulated. The rabbits were ventilated with positive pressure using an air-oxygen mixture (FiO2=0.33). Arterial blood gas tensions and acid-base status were maintained within a normal physiological range (pH 7.35-7.45, PaCO2 25-40 mmHg, and PaO2 90-150 mmHg) by adjusting the respiratory rate or tidal volume. Body temperature was maintained with a heating blanket. Heparin-filled catheters were inserted into the right carotid artery and the left jugular vein for measurement of arterial blood pressure and fluid or drug administration, respectively. Maintenance fluids consisted of 0.9% saline (15 ml/kg/h) that were continued for the duration of the experiment.
A left thoracotomy was performed at the fourth intercostal space, and the heart was suspended in a pericardial cradle. A prominent branch of the left anterior descending coronary artery (LAD) was selected, and a silk ligature was placed around this artery approximately halfway between the base and apex for the production of coronary artery occlusion and reperfusion in myocardial infarct size experiments. Each rabbit was anticoagulated with 500 U of heparin immediately before LAD occlusion. Coronary artery occlusion was verified by the presence of epicardial cyanosis and regional dyskinesia in the ischemic zone, and reperfusion was confirmed by observing an epicardial hyperemic response. Hemodynamics were continuously recorded on a polygraph throughout experimentation. After the surgical preparation, 30 min of stabilization were allowed.
as §1
(§2) Baseline measurements of systemic hemodynamics, arterial blood gas tensions, and blood concentrations of anesthetic agent were performed 30 min after instrumentation was completed. Rabbits received 0.9% saline, drug lipid vehicle (10 ml/h), or intravenous volatile anesthetic (10 ml/h) for 30 min. Infusions were discontinued 30 min prior to coronary occlusion (memory period). Blood concentrations of anesthetic agents were performed at baseline, at the end of anesthetic infusion, and at the end of the memory period just before coronary occlusion). HVA concentrations in blood were determined by gas chromatographic (GC) analysis. All rabbits underwent a 30 min LAD occlusion followed by 3 h reperfusion.
At the end of each experiment, the LAD was reoccluded and 3 ml of Patent blue dye was injected intravenously. The left ventricular area at risk for infarction was separated from surrounding normal areas (stained blue), and the two regions were incubated at 37° C. for 20 to 30 min in 1% 2,3,5-triphenyltetrazolium chloride in 0.1 M phosphate buffer adjusted to pH 7.4. After overnight storage in 10% formaldehyde, infarcted and noninfarcted myocardium within the area at risk were carefully separated and weighed. Infarct size was expressed as a percentage of the area at risk. […]

The conditions of data set [3]: blood/gas; cited from earlier work.
Data set [4] can be described thus: Blood concentration of anesthetics by GC and conversion to MAC-equivalents. The class given is in vivo, rabbit. The method, then:
as §2
Blood concentrations as measured by GC were converted to their MAC-equivalent values by calculations described below. Initially “n”, or the number of moles of HVA in 1 L of alveolar gas during exposure to 1.0 MAC of the HVA was calculated. The ideal gas law n=PV/RT is used to calculate the number of moles of HVA present at 1 MAC in the alveolar gas where: V=1 L, T=273+37=310° (K); and R=0.0821 (universal gas constant). P or pressure was determined taking into account the vapor pressure of water at 37° C. which is 47.1 torr, and the volume percent of the HVA. Volume percentages of HVAs (MAC values) were obtained from literature values determined in rabbits (Scheller et al. Can. J. Anaesth. 1988, 35: 133-136; Drummond, J C Anesthesiology 1985; 62: 336-8, and Doorley et al. Anesthesiology 1988; 69, 89-91), and are presented in Table 8.
The number of moles of the HVA in 1 L at 37° C. at 1 MAC in rabbits was then used to determine the concentration of the HVA present in blood by using known blood/gas partition values (also known as λ). Blood gas partition values for the HVAs used in the study are show in Table 8. The value for “x” (or the equivalent blood concentration of the HVA at 1 MAC at 37° C. in rabbit) is then determined by the equation: x=λn
To express a measured blood concentration of an HVA as a MAC-equivalent value, the measured blood concentration is divided by x. The MAC equivalent values shown in Table 8 were calculated according to the above from the blood concentrations observed (see Table 7).

[5] abbreviates: Infusion (end of 30 min, 10 ml/h i.v. infusion).
[6] abbreviates: Memory (30 min after infusion, just before coronary occlusion).
Where [7] appears, read: measured blood concentration divided by x.

Entries after “also recorded” stand apart in the source; their conditions may differ.

In the case of `FC(F)OC(F)C(F)(F)F` (stereo not drawn) [DES, desflurane], the “behaviour of emulsion on warming to body temperature” value in data set [1] was “bubbles accumulated in the syringe and extension tubing”. Besides, in data set [2], the “infarct size plotted as a function of area at risk, versus control regression line” value was “infarct size comparable to controls”; the “cardioprotection (protection against myocardial ischemia-reperfusion injury)” value (from here on “cardioprotection”) is listed as “unable to confer cardioprotection; also recorded: did not confer cardioprotection”; the IF/AAR was 38.5 ± 6.7%; the “IF WT” value was found to be 0.50 ± 0.15 g. In data set [3], the “Partition Coefficient ("λ")” value is on record as 0.42. Further, in data set [4] (Baseline), the “Blood Concentration” value is 0 µM. The “Blood Concentration” value in data set [4] (setting [5]) turned out to be 180 ± 30 µM. In addition, in data set [4] (setting [6]), the “Blood Concentration” value is 30 ± 20 µM. For the same molecule, the “Observed Blood Concentration following 30 min, 10 mL/h Infusion” value in data set [4] (i.v. emulsion) stood at 0.18 mM. Moreover, in data set [4] (setting [7]), the “Observed Blood Concentration following 30 min, 10 mL/h Infusion” value was found to be 0.13 MAC-Equivalents.
As to `FC(F)OC(F)(F)C(F)Cl` (stereo not drawn) [ENF, enflurane], the “infarct size plotted as a function of area at risk, versus control regression line” value in data set [2] is “infarcts were smaller than in the control group”. The “cardioprotection” value in data set [2] (listed as Enflurane) is on record as “provided protection against myocardial ischemia-reperfusion injury”; in data set [2] (listed as enflurane) it was “adequate protection against myocardial ischemia-reperfusion injury; also recorded: significant reduction in the myocardial infarct size”. Moreover, the IF/AAR in data set [2] was 20.0 ± 2.8 %. Also, in data set [2], the “IF WT” value was 0.21 ± 0.02 g. In addition, in data set [3], the “Partition Coefficient ("λ")” value is reported as 1.9. Moreover, the “Blood Concentration” value was 0 µM in data set [4] (Baseline), 310 ± 30 µM in data set [4] (setting [5]) and 60 ± 10 µM in data set [4] (setting [6]). Further, the “Observed Blood Concentration following 30 min, 10 mL/h Infusion” value in data set [4] (i.v. emulsion) was 0.31 mM; in data set [4] (setting [7]) it was 0.15 MAC-Equivalents.
For `FC(F)OC(Cl)C(F)(F)F` (stereo not drawn) [ISO, isoflurane], in data set [2], the “infarct size plotted as a function of area at risk, versus control regression line” value is “infarcts were smaller than in the control group”; the “cardioprotection” value was “provided protection against myocardial ischemia-reperfusion injury; also recorded: adequate protection against myocardial ischemia-reperfusion injury; also recorded: significant reduction in the myocardial infarct size”; the IF/AAR amounted to 18.1 ± 2.6 %; the “IF WT” value worked out at 0.18 ± 0.03 g. For the same molecule, the “Partition Coefficient ("λ")” value in data set [3] is given as 1.4. Moreover, the “Blood Concentration” value in data set [4] (Baseline) was 0 µM. Further, the “Blood Concentration” value in data set [4] (setting [5]) came to 180 ± 60 µM. The “Blood Concentration” value in data set [4] (setting [6]) is 40 ± 20 µM. For the same molecule, the “Observed Blood Concentration following 30 min, 10 mL/h Infusion” value in data set [4] (i.v. emulsion) was found to be 0.18 mM. Besides, the “Observed Blood Concentration following 30 min, 10 mL/h Infusion” value in data set [4] (setting [7]) was 0.17 MAC-Equivalents.
Turning to `FCOC(C(F)(F)F)C(F)(F)F` [SEVO, sevoflurane], in data set [2], the “infarct size plotted as a function of area at risk, versus control regression line” value is reported as “infarcts were smaller than in the control group”. In data set [2], the “cardioprotection” value is on record as “provided protection against myocardial ischemia-reperfusion injury; also recorded: adequate protection against myocardial ischemia-reperfusion injury; also recorded: significant reduction in the myocardial infarct size”. In data set [2], this molecule returned an IF/AAR of 20.5 ± 2.3 %. Further, in data set [2], the “IF WT” value is listed as 0.19 ± 0.04 g. In addition, the “Partition Coefficient ("λ")” value in data set [3] was 0.69. The “Blood Concentration” value in data set [4] (Baseline) is 0 µM; in data set [4] (setting [5]), 150 ± 10 µM; in data set [4] (setting [6]) it was 20 ± 0 µM. Besides, the “Observed Blood Concentration following 30 min, 10 mL/h Infusion” value in data set [4] (i.v. emulsion) turned out to be 0.15 mM; in data set [4] (setting [7]), 0.16 MAC-Equivalents.

These data come from patent US7999011B2, “Method for cardioprotection and neuroprotection by intravenous administration of halogenated volatile anesthetics” (Baxter International Inc., priority 2002, dated 2011).
